Patent US20260337153A1, “IONIZABLE AMINE LIPIDS” (Intellia Therapeutics, Inc., priority 2023, published 2026)

The compounds below were run on rat TTR gene (assay: In vivo editing of TTR in rat liver after LNP delivery (NGS, % editing)). Details: NGS, dose 0.03 mpk, LNP with G000534 sgRNA and Cas9 mRNA 1:2 w/w, 3% C13 Ether (Compound 53: 3% PEG2K-DMG), N=5 (Compound 33: N=4).
Set-up: species or system rat (Sprague-Dawley)
In short: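 Four-component LNPs (ionizable amine lipid, DSPC, cholesterol, PEG lipid) carried Cas9 mRNA and a chemically modified sgRNA against rat TTR, made by impinging jet mixing at an N:P near 6. They were injected into the lateral tail vein of female Sprague-Dawley rats. Liver genomic DNA collected at 6 or 7 days was amplicon-sequenced on Illumina MiSeq to calculate percent indels.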

SMILES | Mean % editing in rat liver [%]
CCCCCCCCC(CCCCCCCC)OC(=O)CCCCCC(=O)OCC(COC(=O)CCCCCC(=O)OC(CCCCCCCC)CCCCCCCC)COC(=O)OCCCN1CCCC1 [Compound 64, 7,7′-di(heptadecan-9-yl) O′1,O1-(2-((((3-(pyrrolidin-1-yl)propoxy)carbonyl)oxy)methyl)propane-1,3-diyl) di(heptanedioate)] | 2.0
CCCCCCCCC(CCCCCCCC)OC(=O)CCCCCCC(=O)OCC(COC(=O)CCCCCCC(=O)OC(CCCCCCCC)CCCCCCCC)COC(=O)OCCCN1CCCC1 [Compound 65, 8,8′-di(heptadecan-9-yl) O′1,O1-(2-((((3-(pyrrolidin-1-yl)propoxy)carbonyl)oxy)methyl)propane-1,3-diyl) di(octanedioate)] | 4.5
CCCCCCCCC(CCCCCCCC)OC(=O)CCCCCCC(=O)OCC(CC)(COC(=O)CCCCCCC(=O)OC(CCCCCCCC)CCCCCCCC)COC(=O)NCCN(CC)CC [Compound 66, O′1,O1-(2-((((2-(diethylamino)ethyl)carbamoyl)oxy)methyl)-2-ethylpropane-1,3-diyl) 8,8′-di(heptadecan-9-yl) di(octanedioate)] | 9.5
CCCCCCCCC(CCCCCCCC)OC(=O)CCCCCCC(=O)OCC(CC)(COC(=O)CCCCCCC(=O)OC(CCCCCCCC)CCCCCCCC)COC(=O)OCCCN1CCCC1 [Compound 67, O′1,O1-(2-ethyl-2-((((3-(pyrrolidin-1-yl)propoxy)carbonyl)oxy)methyl)propane-1,3-diyl) 8,8′-di(heptadecan-9-yl) di(octanedioate)] | 1.6
CCCCCCCCC(CCCCCCCC)OC(=O)CCCCC(=O)OCC(COC(=O)CCCCC(=O)OC(CCCCCCCC)CCCCCCCC)COC(=O)NCCN(CC)CC [Compound 68, O,O′-(2-((((2-(diethylamino)ethyl)carbamoyl)oxy)methyl)propane-1,3-diyl) di(heptadecan-9-yl) diadipate] | 17.1

Same assay, conditions: Table 8, 0.03 mpk, LNP with C13 Ether

SMILES | Mean % editing [%]
CCCCCCCCC(CCCCCCCC)CC(=O)OCCC(=O)OCC(COC(=O)CCCC(=O)OC(CCCCCCCC)CCCCCCCC)COC(=O)NCCN(CC)CC (stereo not drawn) [Compound 63, 3-(((2-(diethylamino)ethyl)carbamoyl)oxy)-2-(((3-((3-octylundecanoyl)oxy)propanoyl)oxy)methyl)propyl heptadecan-9-yl Glutarate] | 0.1
